According to article PMC4505723 (Journal of the American Chemical Society, 2015):

Tested on: L. lactis HP cells
Test: liquid media growth assays with L. lactis HP cells
Type: cell-based
Conditions: liquid media growth assay (Figure S4)

Row | Substance | IC50 [nM]
1 | lacticin 481 [wt lacticin 481] | 100 ± 25
2 | nukacin ISK-1 | 400 ± 80
